{"source": "patent US6861044B2", "about": "“Radioiodinated sulfonated phenols and process therefore” (The Dow Chemical Company, priority 1998, dated 2005)", "key": {"[1]": {"experiment": "Rat biodistribution 1 hour after tail vein injection", "type": "in vivo, Sprague-Dawley rats", "details": "for Activity in the thyroid / Radioactivity in / cleared from the body: rats", "method": "(§1) The radioiodinated HBS (^131I-HBS) solution (100 μL), prepared in Example 3, was injected […] into a tail vein of three Sprague-Dawley rats (180-220 g). After one hour, the animals were sacrificed and the tissues and organs of interest were removed and weighed. The amount of radioactivity in each organ was determined by counting the tissue sample with a sodium iodide detector coupled to a multi-channel analyzer. The counts in the tissues were compared to the average counts of three 100 μL aliquots of ^131I-HBS counted in the same manner. The percentage of dose in the bone was calculated by assuming the femur to represent 1/25 the weight of the total skeletal system. The blood dose was calculated by assuming that blood comprises 6.5% of the total body weight. Muscle dose was calculated by assuming that muscle comprises 43% of the total body weight.\nThe biodistribution of the radioiodinated tyramine prepared in Example 6 was determined as in Example 4 (using 2 rats)."}, "[2]": {"experiment": "Two hour rat biodistribution after intrathecal administration", "type": "in vivo, Sprague-Dawley rats", "method": "as §1\nAn I-HBS solution was prepared as in Example 3. Twenty μL of this solution was injected intrathecally in two Sprague-Dawley rats (100-150 g). After two hours the rats were sacrificed and dissected. The amount of radio activity in various organs and tissues was determined as in Example 4."}, "[3]": {"target": "T1, thyroxine-binding globulin (Homo sapiens, UniProt P05543)", "T1 sequence (P05543 21-415)": "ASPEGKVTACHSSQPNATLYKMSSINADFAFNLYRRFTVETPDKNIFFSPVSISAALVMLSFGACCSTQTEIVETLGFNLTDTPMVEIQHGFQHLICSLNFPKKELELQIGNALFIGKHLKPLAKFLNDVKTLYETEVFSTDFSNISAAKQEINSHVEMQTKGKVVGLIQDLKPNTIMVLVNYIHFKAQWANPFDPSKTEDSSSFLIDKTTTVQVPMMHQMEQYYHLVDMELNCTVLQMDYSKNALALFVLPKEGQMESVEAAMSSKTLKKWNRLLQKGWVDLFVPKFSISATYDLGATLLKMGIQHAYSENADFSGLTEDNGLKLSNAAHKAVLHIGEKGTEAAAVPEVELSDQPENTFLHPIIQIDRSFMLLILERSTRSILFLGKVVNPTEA", "details": "concentrations up to 0.2 mM; cited from earlier work"}, "[4]": {"target": "albumin (Homo sapiens, UniProt P02768)", "sequence (P02768 25-609, species assumed)": "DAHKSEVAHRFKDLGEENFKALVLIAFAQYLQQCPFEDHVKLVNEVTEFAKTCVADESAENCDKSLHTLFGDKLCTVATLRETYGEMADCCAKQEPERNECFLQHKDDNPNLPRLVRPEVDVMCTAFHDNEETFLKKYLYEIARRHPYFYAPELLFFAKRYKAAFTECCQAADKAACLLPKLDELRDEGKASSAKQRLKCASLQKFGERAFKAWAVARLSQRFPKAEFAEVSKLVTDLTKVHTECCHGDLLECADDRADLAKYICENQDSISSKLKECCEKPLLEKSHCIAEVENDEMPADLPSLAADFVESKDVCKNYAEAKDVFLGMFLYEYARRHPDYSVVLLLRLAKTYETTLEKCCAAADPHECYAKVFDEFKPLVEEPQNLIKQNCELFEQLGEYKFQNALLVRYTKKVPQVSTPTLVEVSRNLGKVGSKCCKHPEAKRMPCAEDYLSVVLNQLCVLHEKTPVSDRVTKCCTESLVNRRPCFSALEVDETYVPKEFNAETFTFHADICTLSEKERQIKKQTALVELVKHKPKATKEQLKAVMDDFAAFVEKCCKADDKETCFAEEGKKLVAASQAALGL", "details": "concentrations up to 0.2 mM; cited from earlier work"}, "[5]": {"target": "prealbumin (Homo sapiens, UniProt P02766)", "details": "concentrations up to 0.2 mM; cited from earlier work"}, "[6]": {"details": "1 hour post injection, tail vein"}, "[7]": {"details": "average of three rats, 1 Hour After Injection, tail vein"}, "[8]": {"details": "individual rat, 1 Hour After Injection, tail vein"}, "[9]": {"details": "average of two rats, two hours after intrathecal administration of 20 μL"}, "[10]": {"details": "two hours after intrathecal administration, rats"}, "[11]": {"details": "average of 2 rats, determined as in Example 4 (percent of dose, 1 hour post injection, tail vein)"}, "[12]": {"details": "individual rat, determined as in Example 4 (percent of dose, 1 hour post injection, tail vein)"}}, "note": "Several values for one entry are separate records, joined by “and”; a condition that tells them apart may be missing. Identical values can stand only once."}
{"smiles": "O=S(=O)([O-])c1ccc(O)c([131I])c1.[Na+]", "note": "[^131I-HBS]", "values": [{"measurement": "Activity in the urine", "setting": "[1]; 1 hour post injection, all animals", "value": "Almost all the activity"}, {"measurement": "Activity in the thyroid", "setting": "[1]; [6]", "value": "lack of activity"}, {"measurement": "Radioactivity in / cleared from the body", "setting": "[1]; [6]", "value": "very little activity"}, {"measurement": "Percent Injected Dose, Heart, Average", "setting": "[1]; [7]", "value": 0.01, "unit": "Percent Injected Dose"}, {"measurement": "Percent Injected Dose, Kidney, Average", "setting": "[1]; [7]", "value": 0.12, "unit": "Percent Injected Dose"}, {"measurement": "Percent Injected Dose, Lg. Int., Average", "setting": "[1]; [7]", "value": 0.08, "unit": "Percent Injected Dose"}, {"measurement": "Percent Injected Dose, Liver, Average", "setting": "[1]; [7]", "value": 0.06, "unit": "Percent Injected Dose"}, {"measurement": "Percent Injected Dose, Lung, Average", "setting": "[1]; [7]", "value": 0.02, "unit": "Percent Injected Dose"}, {"measurement": "Percent Injected Dose, Sm Int., Average", "setting": "[1]; [7]", "value": 1.10, "unit": "Percent Injected Dose"}, {"measurement": "Percent Injected Dose, Spleen, Average", "setting": "[1]; [7]", "value": 0.00, "unit": "Percent Injected Dose"}, {"measurement": "Percent Injected Dose, Stomach, Average", "setting": "[1]; [7]", "value": 0.29, "unit": "Percent Injected Dose"}, {"measurement": "Percent Injected Dose, Tail, Average", "setting": "[1]; [7]", "value": 0.08, "unit": "Percent Injected Dose"}, {"measurement": "Percent Injected Dose, Thyroid, Average", "setting": "[1]; [7]", "value": 0.00, "unit": "Percent Injected Dose"}, {"measurement": "Percent Injected Dose, Blood, Average", "setting": "[1]; average of three rats, 1 Hour After Injection, tail vein, blood taken as 6.5% of body weight", "value": 0.16, "unit": "Percent Injected Dose"}, {"measurement": "Percent Injected Dose, Bone, Average", "setting": "[1]; average of three rats, 1 Hour After Injection, tail vein, femur taken as 1/25 of skeleton", "value": 1.00, "unit": "Percent Injected Dose"}, {"measurement": "Percent Injected Dose, Muscle, Average", "setting": "[1]; average of three rats, 1 Hour After Injection, tail vein, muscle taken as 43% of body weight", "value": 0.40, "unit": "Percent Injected Dose"}, {"measurement": "Percent Injected Dose, Heart", "setting": "[1]; [8]", "value": "0.01 Percent Injected Dose (2×) and 0.02 Percent Injected Dose"}, {"measurement": "Percent Injected Dose, Kidney", "setting": "[1]; [8]", "value": "0.19 Percent Injected Dose and 0.10 Percent Injected Dose and 0.08 Percent Injected Dose"}, {"measurement": "Percent Injected Dose, Lg. Int.", "setting": "[1]; [8]", "value": "0.08 Percent Injected Dose and 0.12 Percent Injected Dose and 0.05 Percent Injected Dose"}, {"measurement": "Percent Injected Dose, Liver", "setting": "[1]; [8]", "value": "0.05 Percent Injected Dose and 0.08 Percent Injected Dose and 0.06 Percent Injected Dose"}, {"measurement": "Percent Injected Dose, Lung", "setting": "[1]; [8]", "value": "0.01 Percent Injected Dose and 0.03 Percent Injected Dose and 0.02 Percent Injected Dose"}, {"measurement": "Percent Injected Dose, Sm Int.", "setting": "[1]; [8]", "value": "1.51 Percent Injected Dose and 0.67 Percent Injected Dose and 1.24 Percent Injected Dose"}, {"measurement": "Percent Injected Dose, Spleen", "setting": "[1]; [8]", "value": "0.01 Percent Injected Dose (2×) and 0.00 Percent Injected Dose"}, {"measurement": "Percent Injected Dose, Stomach", "setting": "[1]; [8]", "value": "0.33 Percent Injected Dose and 0.31 Percent Injected Dose and 0.24 Percent Injected Dose"}, {"measurement": "Percent Injected Dose, Tail", "setting": "[1]; [8]", "value": "0.01 Percent Injected Dose and 0.16 Percent Injected Dose and 0.09 Percent Injected Dose"}, {"measurement": "Percent Injected Dose, Thyroid", "setting": "[1]; [8]", "value": 0.00, "unit": "Percent Injected Dose"}, {"measurement": "Percent Injected Dose, Blood", "setting": "[1]; individual rat, 1 Hour After Injection, tail vein, blood taken as 6.5% of body weight", "value": "0.14 Percent Injected Dose and 0.18 Percent Injected Dose and 0.15 Percent Injected Dose"}, {"measurement": "Percent Injected Dose, Bone", "setting": "[1]; individual rat, 1 Hour After Injection, tail vein, femur taken as 1/25 of skeleton", "value": "0.37 Percent Injected Dose and 0.16 Percent Injected Dose"}, {"measurement": "Percent Injected Dose, Muscle", "setting": "[1]; individual rat, 1 Hour After Injection, tail vein, muscle taken as 43% of body weight", "value": "0.88 Percent Injected Dose and 0.38 Percent Injected Dose and 0.05 Percent Injected Dose"}, {"measurement": "% Injected Dose, Bladder", "setting": "[2]; [9]", "value": 0.3, "unit": "% Injected Dose"}, {"measurement": "% Injected Dose, Blood", "setting": "[2]; [9]", "value": 0.7, "unit": "% Injected Dose"}, {"measurement": "% Injected Dose, Bone", "setting": "[2]; [9]", "value": 1.3, "unit": "% Injected Dose"}, {"measurement": "% Injected Dose, Brain", "setting": "[2]; [9]", "value": 1.6, "unit": "% Injected Dose"}, {"measurement": "% Injected Dose, Caecum", "setting": "[2]; [9]", "value": 0.0, "unit": "% Injected Dose"}, {"measurement": "% Injected Dose, Colon", "setting": "[2]; [9]", "value": 0.9, "unit": "% Injected Dose"}, {"measurement": "% Injected Dose, Heart", "setting": "[2]; [9]", "value": 0.0, "unit": "% Injected Dose"}, {"measurement": "% Injected Dose, Kidney", "setting": "[2]; [9]", "value": 0.3, "unit": "% Injected Dose"}, {"measurement": "% Injected Dose, Liver", "setting": "[2]; [9]", "value": 0.2, "unit": "% Injected Dose"}, {"measurement": "% Injected Dose, Lung", "setting": "[2]; [9]", "value": 0.0, "unit": "% Injected Dose"}, {"measurement": "% Injected Dose, Muscle", "setting": "[2]; [9]", "value": 0.5, "unit": "% Injected Dose"}, {"measurement": "% Injected Dose, Sm. Intestine", "setting": "[2]; [9]", "value": 0.5, "unit": "% Injected Dose"}, {"measurement": "% Injected Dose, Spleen", "setting": "[2]; [9]", "value": 0.0, "unit": "% Injected Dose"}, {"measurement": "% Injected Dose, Stomach", "setting": "[2]; [9]", "value": 0.3, "unit": "% Injected Dose"}, {"measurement": "% Injected Dose, Thyroid", "setting": "[2]; [9]", "value": 0.0, "unit": "% Injected Dose"}, {"measurement": "% Injected Dose, Urine", "setting": "[2]; average of two rats, two hours after intrathecal administration of 20 μL, recovery of urine may have been less than quantitative", "value": 88, "unit": "% Injected Dose"}, {"measurement": "Clearance of radioactivity through the kidney", "setting": "[2]; [10]", "value": "had cleared the kidney"}, {"measurement": "Radioactivity present in the thyroid", "setting": "[2]; [10]", "value": "little or no radioactivity"}]}
{"smiles": "O=S(=O)(O)c1cc(I)c(O)c(I)c1", "note": "[diiodophenolsulphonic acid, 3,5-diiodo-4-hydroxybenzenesulphonic acid]", "values": [{"measurement": "Displacement of triiodothyronine from thyroxine-binding globulin", "setting": "[3]", "value": "did not displace"}, {"measurement": "Displacement of triiodothyronine from albumin", "setting": "[4]", "value": "did not displace"}, {"measurement": "Displacement of thyroxine from prealbumin-binding sites", "setting": "[5]", "value": "did selectively display thyroxine"}]}
{"smiles": "NCCc1ccc(O)c([131I])c1", "note": "[radioiodinated tyramine]", "values": [{"measurement": "Activity in the thyroid", "setting": "[1]; [6]", "value": "very little"}, {"measurement": "Radioactivity in / cleared from the body", "setting": "[1]; [6]", "value": "most radioactivity had cleared the body"}, {"measurement": "Biodistribution, Blood, Average", "setting": "[1]; [11]", "value": 1.13}, {"measurement": "Biodistribution, Bone, Average", "setting": "[1]; [11]", "value": 0.25}, {"measurement": "Biodistribution, Heart, Average", "setting": "[1]; [11]", "value": 0.03}, {"measurement": "Biodistribution, Kidney, Average", "setting": "[1]; [11]", "value": 0.26}, {"measurement": "Biodistribution, Lg. Int., Average", "setting": "[1]; [11]", "value": 1.24}, {"measurement": "Biodistribution, Liver, Average", "setting": "[1]; [11]", "value": 0.52}, {"measurement": "Biodistribution, Lung, Average", "setting": "[1]; [11]", "value": 0.15}, {"measurement": "Biodistribution, Muscle, Average", "setting": "[1]; [11]", "value": 1.09}, {"measurement": "Biodistribution, Sm. Int., Average", "setting": "[1]; [11]", "value": 4.07}, {"measurement": "Biodistribution, Spleen, Average", "setting": "[1]; [11]", "value": 0.01}, {"measurement": "Biodistribution, Stomach, Average", "setting": "[1]; [11]", "value": 0.43}, {"measurement": "Biodistribution, Tail, Average", "setting": "[1]; [11]", "value": 0.49}, {"measurement": "Biodistribution, Thyroid, Average", "setting": "[1]; [11]", "value": 0.09}, {"measurement": "Biodistribution, Blood", "setting": "[1]; [12]", "value": "1.19 and 1.06"}, {"measurement": "Biodistribution, Bone", "setting": "[1]; [12]", "value": "0.30 and 0.20"}, {"measurement": "Biodistribution, Heart", "setting": "[1]; [12]", "value": "0.03 and 0.02"}, {"measurement": "Biodistribution, Kidney", "setting": "[1]; [12]", "value": "0.26 and 0.25"}, {"measurement": "Biodistribution, Lg. Int.", "setting": "[1]; [12]", "value": "0.46 and 2.02"}, {"measurement": "Biodistribution, Liver", "setting": "[1]; [12]", "value": "0.46 and 0.57"}, {"measurement": "Biodistribution, Lung", "setting": "[1]; [12]", "value": "0.03 and 0.26"}, {"measurement": "Biodistribution, Muscle", "setting": "[1]; [12]", "value": "1.31 and 0.87"}, {"measurement": "Biodistribution, Sm. Int.", "setting": "[1]; [12]", "value": "3.47 and 4.67"}, {"measurement": "Biodistribution, Spleen", "setting": "[1]; [12]", "value": 0.01}, {"measurement": "Biodistribution, Stomach", "setting": "[1]; [12]", "value": "0.37 and 0.48"}, {"measurement": "Biodistribution, Tail", "setting": "[1]; [12]", "value": "0.77 and 0.20"}, {"measurement": "Biodistribution, Thyroid", "setting": "[1]; [12]", "value": "0.12 and 0.07"}]}
